PMC7753040, “Discovery of a Potent RIPK3 Inhibitor for the Amelioration of Necroptosis-Associated Inflammatory Injury” (Frontiers in Cell and Developmental Biology, 2020)

Test system: HeLa-MLKL (1–190) cells
Assay: MLKL polymerization-induced necroptosis in HeLa-MLKL (1-190) cells (AP20187)
Type: cell-based, human
Conditions: doxycycline 1 μg/ml 24 h, 2 h pretreatment, AP20187 60 nM 24 h
Description: Human colon cancer HT-29 and mouse fibrosarcoma L929 cells were from ATCC. Mouse embryonic fibroblasts (MEF), HT-29 cells stably expressing RIPK3-shRNA and shRNA resistant scramble Flag-tagged RIPK3 (W46), and NIH3T3 cell line stably expressing RIPK3 fused to mutant FK506-binding protein (NIH3T3-RIPK3) were kindly provided by Dr. Xiaodong Wang [National Institute of Biological Sciences (NIBS), Beijing]. HeLa-MLKL (1-190) cell line was a gift from Dr. Zhigao Wang (University of Texas Southwestern Medical Center at Dallas). These cells were cultured in Dulbecco’s modified Eagle’s medium (Hyclone) supplemeted with 10% fetal bovine serum (Invitrogen) and 2 mM L-glutamine (Invitrogen) in a humidified incubator at 37°C and 5% CO2. […]
Cells were seeded in 96-well plates and then treated as indicated. The cell viability was determined by assessment of ATP levels using the CellTiter-Glo Luminescent Cell Viability Assay kit following the manufacture’s instructions (Promega). Luminescence was calculated with SpectraMax i3x (Molecular Devices).
In vitro kinase activity assays using recombinant RIPK3 and RIPK1 were performed as described in the section “Materials and Methods.” Data represent mean value ± standard deviation. […] Cell viability was determined by measuring ATP levels. […] Cell viability was determined by measuring ATP levels. […]

How did the “polymerized MLKL-induced necroptosis” value turn out when `COc1nccnc1NS(=O)(=O)c1ccc(NC(=O)/C=C/c2ccc([N+](=O)[O-])s2)cc1` [necrosulfonamide, reference compound] was run?
Its value is “blocked”.
